# Assay results reported in patent US5498624A, “Selected pyrazolyl derivatives” (Monsanto Company, priority 1995, dated 1996).
# Experiments:
# [1] = target: Succinate Dehydrogenase; experiment: Enzyme Inhibition I-50 (WGB): Succinate Dehydrogenase Assay using Septoria nodorum mitochondria; format: biochemical; conditions: DCPIP reduction, read-out: WGB enzyme I-50
# Procedure: Succinate Dehydrogenase Assay using Septoria nodorum mitochondria--Septorianodorum mycelia are prepared from spores via shake culture for 40-48 hours in 3% malt extract at room temperature. The mycelia are harvested by centrifugation and the pellets obtained are stored in the -80° C. freezer until use.
# Mitochondria are isolated by a method adapted from White (Biochem. Biophys. Res. Commun. 44 (1971) 1212-19). Fifteen to twenty grams of frozen mycelia are resuspended in a 250 mL medium containing 0.25M sucrose, 5 mM tetrasodium ethylenediamine tetraacetic acid (Na4 EDTA), pH 7.0 containing 1.5 g/liter bovine serum albumin (BSA) and placed in a Bead Beater chamber (BioSpec Products, Bartlesville, Okla.). Zirconium oxide beads (0.5 mm) are added to finish filling the chamber. Four 30s beats separated by 2 rain temperature equilibration periods on ice are used to break the mycelia. The homogenate is centrifuged for 20 min at 3000×g and 4° C. to remove debris. The supernatant is recentrifuged at 20,000×g for 20 min at 4° C. The resulting pellet is resuspended in BSA-free sucrose/EDTA medium (40 mL) using a glass tissue homogenizer and teflon pestle and recentrifuged at 27,000×g for 15 min at 4° C. The pellet is resuspended in BSA-free sucrose/EDTA medium (~3 mL) and used for SDH assays.
# The enzyme activity is measured at […] in a solution containing 50 mM potassium phosphate, pH7.2; 1 mM potassium cyanide; 45 μM 2,6-dichlorophenol indophenol (DCPIP) and 17 mM disodium succinate in a final volume of 1 mL with a Perkin-Elmer Lambda 7 ultraviolet-visible spectrophotometer. The test compounds are added as acetone solutions (final concentration of acetone less than or equal to 1%(v/v)). The mitochondrial preparations are used to initiate the reaction. All rates are corrected for succinate-independent dye reduction. Semilog plots of percentage inhibition versus test compound concentration are used to determine inhibition expressed as I50 (μM) which is the concentration required to inhabit the rate of DCPIP reduction by 50%. The commercial fungicide carboxin is used as a standard throughout [I50 (μM)=5.0±2.2; n=52].
# [2] = tested on: Pseudocercosporella herpotrichoides var. tritici; experiment: Wheat True Eyespot In Vitro Assay (WES In Vitro); format: cell-based; parameters: key: 0: no inhibition of mycelial growth; 1: slight inhibition of mycelial growth; 2: moderate inhibition of mycelial growth; 3: strong inhibition of mycelial growth; conditions: 3 days at 19° C.
# Procedure: A) Pathogen/Inoculum Production--A mycelial transfer of Pseudocercosporella herpotrichoides var. tritici is placed onto potato dextrose agar plates and allowed to grow for 40 days at 20 ° C., without light. Five agar discs are taken from the actively growing culture and are placed equidistant, mycelial side down, onto a water agar plate, and incubated at 10 ° C. with 10 hours of fluorescent light per day. After 5 days of incubation, sporulation on the transferred discs begins, and plates are flooded with 3-5 mls sterile deionized water. One-half ml aliquots are taken from the resulting spore suspension and placed on new water agar plates. Spores are spread across plates using a bent glass rod and incubated at 10 ° C. with 10 hour fluorescent light periods per day. In 5-10 days, a lawn of spores is produced and can be "harvested".
# B) Compound Preparation and Test Execution--200 μl of 1/4 strength potato dextrose broth is placed in each well of a 96 well microtiter plate. […] The commercial standard used is prochloraz at equivalent rates.
# C) Inoculation/Incubation--50 μl of a 1×10^6 spores/ml suspension harvested using the method above is added to each well. The 96 well plates are incubated for 3 days at 19° C. in the dark.
# (§1) D) Evaluation--After incubation, each well is visually assessed for growth inhibition on the following 0-3 scale:
# (§2) 0=no inhibition of mycelial growth
# (§3) 1=slight inhibition of mycelial growth
# (§4) 2=moderate inhibition of mycelial growth
# (§5) 3=strong inhibition of mycelial growth
# [3] = tested on: Septoria nodorum; experiment: Wheat Glume Blotch (WGB) In Vitro; format: cell-based; parameters: key: 0: no inhibition of mycelial growth; 1: slight inhibition of mycelial growth; 2: moderate inhibition of mycelial growth; 3: strong inhibition of mycelial growth; conditions: 4-6 days at 25° C.
# Procedure: A) Pathogen/Inoculum Production--The wheat glume blotch fungus, Septoria nodorum, is cultured on yeast/malt agar at 22° C. and 12 hours fluorescent light. Several sterile loops full of mature pycnidia produced on a 7 day old culture plates are added to 30 mls of 1/4 strength potato dextrose broth. After 15 minutes the suspension is stirred, and adjusted to a concentration of 3×10^5 spores/mi.
# B) Compound Preparation and Test Execution--200 μl of 1/4 strength potato dextrose broth is placed in each well of a 96 well microtiter plate. […] The commercial standard used is flusilazole, at equivalent rates.
# C) Inoculation/Incubation--50 μl of a 3×10^5 spores/ml suspension obtained using the method above is added to each well. The 96-well plate is incubated for 4-6 days at 25° C., 12 hours fluorescent light.
# as §1, §2, §3, §4, §5
Structure (SMILES),IC50 [1] [nM],WES In vitro growth inhibition 0-3 scale ([2]; 0.1 ppm),WES In vitro growth inhibition 0-3 scale ([2]; 0.5 ppm),WES In vitro growth inhibition 0-3 scale ([2]; 5.0 ppm),WGB In Vitro growth inhibition 0-3 scale ([3]; 0.1 ppm),WGB In Vitro growth inhibition 0-3 scale ([3]; 0.5 ppm),WGB In Vitro growth inhibition 0-3 scale ([3]; 5.0 ppm)
"C[C@@H]1CCC[C@H](c2ccccc2NC(=O)c2cn(C)nc2C(F)F)C1 (relative stereo) [Number 2, 1H-pyrazole-4-carboxamide, 3-(difluoromethyl)-1-methyl-N-[2-(-3-methylcyclohexyl)phenyl]-, cis-]",37,1,2,3,0,1,2
"Cn1cc(C(=O)Nc2ccccc2[C@H]2CC[C@H](C)CC2)c(C(F)(F)F)n1 [Number 4, 1H-pyrazole-4-carboxamide, 1-methyl-N-[2-(4-methylcyclohexyl)phenyl]-3-(trifluoromethyl)-, trans-]",29,1,2,3,1,1,2
Cn1cc(C(=O)Nc2ccccc2[C@@H]2CCC[C@@H](C(F)(F)F)C2)c(C(F)F)n1 (relative stereo) [Number 6],520,0,0,2,0,0,1
"CC[C@H]1CC[C@@H](c2ccccc2NC(=O)c2cn(C)nc2C(F)F)CC1 [Number 1, 1H-pyrazole-4-carboxamide, 3-(difluoromethyl)-N-[2-(4-ethylcyclohexyl)phenyl]-1-methyl-, cis-]",15,0,3,3,0,3,3
"Cn1cc(C(=O)Nc2ccccc2C2CCC(C)(C)CC2)c(C(F)F)n1 [Number 5, 1H-pyrazole-4-carboxamide, 3-(difluoromethyl)-N-(2-(4,4-dimethylcyclohexyl)phenyl]-1-methyl-]",8,1,3,3,0,2,2
"C[C@H]1CCC[C@H](c2ccccc2NC(=O)c2cn(C)nc2C(F)F)C1 (relative stereo) [Number 3, 1H-pyrazole-4-carboxamide, 3-(difluoromethyl)-1-methyl-N-[2-(3-methylcyclohexyl)phenyl]-, trans-]",50,1,2,3,0,0,0
